Data published in patent publication US20210000890A1, “COMPOSITIONS AND METHODS FOR DENTAL CARE” (The State of Israel, Ministry of Agriculture & Rural …, priority 2019, published 2021).

Assays:
[1] = test system: S. mutans biofilm; assay: Mono and dual-species biofilm formation, biofilm biomass by Crystal Violet staining; type: cell-based, Streptococcus mutans UA159; settings: S. mutans cultured as monospecies in TY with the sugar alcohol, 24 h
Experimental: For B. subtilis mono-species biofilm, a starter culture was diluted 1:100 (to obtain final O.D (600 nm)=0.07)) into TY or TY supplemented with either 2% sucrose or sorbitol or mannitol at various concentrations (10, 25,50,100 or 125 mM) in 96-well plate (Nunc, Roskilde, Denmark). The plate was incubated at 37° C. in 95% air/5% CO2 for 24 h.
For S. mutans mono-species biofilm, overnight cultured S. mutans (O.D (600 nm)=1)) were diluted 1:10 into TY or TY supplemented with 2% sucrose (served as controls) or TY supplemented with different concentration of sorbitol or mannitol (10, 25,50,100 or 125 mM) into 96-well plate (Nunc). The plate was incubated at 37° C. in 95% air/5% CO2 for 24 h. For dual-species biofilm, cells of B. subtilis and S. mutans were grown into 96-well plate as follows: to fresh TY or TY supplemented with 2% sucrose or different concentration of sorbitol or mannitol (10, 25, 50, 100 or 125 mM) were introduced overnight cultured S. mutans (diluted by a ratio 1:10, approximately 2.5×10^7 CFU) and B. subtilis (diluted by a ratio 1:100, approximately 2.5×10^5 CFU). […]
The generated submerged biofilms were washed carefully twice with saline solution. […] The extract was placed in a new 96-well plate and O.D. at 595 nm was measured using a plate reader instrument (infinite PRO2000, NEOTEC Scientific Instrumentation Ltd. Camspec, Cambridge, United Kingdom)^31,32.

[2] = test system: S. mutans; assay: Growth curve analysis (O.D. 595 nm); type: cell-based, Streptococcus mutans UA159; settings: for growth of S. mutans: M9 minimal medium, 50 mM as sole carbon source, 16 h; for lag phase of S. mutans: TY medium supplemented with the sugar alcohol, different concentrations
Experimental: For growth curve analysis, B. subtilis or S. mutans cultures grown as described above, were diluted (1:100 or 1:10 respectively) in TY or TY supplemented with 2% sucrose or different concentration of sorbitol or mannitol. When needed, the bacteria were diluted in M9 medium with 0.2% glucose or 50 mM sorbitol/mannitol. The cultures were then incubated at 37° C. overnight with slight shaking. The growth was recorded every hour using optical density measurement at 595 nm (infinite […]).

[3] = test system: mltD (mannitol-1-phosphate 5-dehydrogenase); assay: Relative gene expression by real-time RT-PCR; type: cell-based, B. subtilis; settings: TY with 50 mM sugar alcohol vs TY alone (=1)
Experimental: (§1) The cultures of either B. subtilis or S. mutans grown as described above, were diluted (1:100 or 1:10 respectively) in TY or TY supplemented with 50 mM sorbitol or mannitol. Next, B. subtilis were grown 37° C. at 150 rpm while S. mutans at 37° C. in 95% air/5% CO2. Samples for each treatment were taken after 3, 6, 12, 18 and 24 hours. One mL of RNA protect (Qiagen, Hilden, Germany) was added to each sample and incubated at RT for 5 min. After, the cells were centrifuged at 4,000×g for 10 min. RNA extraction preformed using GenUP total RNA kit (biotechrabbit, Hennigsdorf, Germany) according to the manufacture's protocol. Reverse transcription was performed using qScript cDNA synthesis kit (Quantabio, Beverly, Mass., USA).The synthesized cDNA was later used for the real-time PCR analysis of key enzymes in the metabolic pathway of S. mutans and B. subtilis (Sorbitol dehydrogenase (gutB) or Mannitol-1-phosphate 5-dehydrogenase (mltD)). The RT-PCR reaction was performed as described previously^33. Briefly, RT-PCR reaction mixture (20 μL) contained 1×SYBR Green (Invitrogen, California, USA), 1 μL cDNA sample and […] of the appropriate forward and reverse PCR primers. PCR conditions included an initial denaturation at 95° C. for 10 min, followed by a 40-cycles of amplification, consisting of denaturation at 95° C. for 15 s and annealing and extension at 60° C. for 1 min. Contamination by residual genomic DNA was determined from control reactions devoid of reverse transcriptase. The expression levels of all the tested genes by real-time PCR were normalized using the 16S rRNA gene of S. mutans as an internal standard ([…] et al., 2007) or sigA gene for B. subtilis.

[4] = test system: gutB (sorbitol dehydrogenase); assay: Relative gene expression by real-time RT-PCR; type: cell-based, B. subtilis; settings: TY with 50 mM sugar alcohol vs TY alone (=1)
Experimental: as §1

Compound | S. mutans monospecies biofilm compared to the TY control [1] | growth of S. mutans [2] | lag phase of S. mutans [2] | maximal induction rate of mltD ([3]; after 3 hours) [folds] | induction of mltD ([3]; after 6 hours until 24 hours) [fold] | maximal induction rate of gutB ([4]; after 3 hours) [folds] | induction of gutB ([4]; after 6 hours until 24 hours) [fold]
OC[C@@H](O)[C@@H](O)[C@H](O)[C@H](O)CO [mannitol] | enhanced biofilm | did not grow | approximately 3 hours | 1.6 | 1.2 |  | 
OC[C@@H](O)[C@@H](O)[C@H](O)[C@@H](O)CO [sorbitol] | enhanced biofilm | did not grow | approximately 3 hours |  |  | 2 | 1.6
